Laboratory results: patent publication US20230181604A1, “Use of Mitochondria-Targeted Antioxidants to Treat Severe Inflammatory Conditions” (Mitotech S.A., priority 2020, published 2023)

What was measured:
mice [1] = experiment: Shock by injection of isolated liver mitochondria into the tail vein, survival; type: in vivo; conditions: for Mortality after mitochondria injection: C12 TPP instead of SkQ1
Experimental: (§1) SkQ1 protected mice in three different mouse models of severe critical conditions. The first critical condition was induced by injection of a suspension of isolated liver mitochondria into the mouse tail vein. The second critical condition was induced by the sharp cold shock of placing mice for 90 minutes in a −20° C. environment. The third condition was induced by administration of a toxic concentration the of lipophilic cation C12 TPP, whose formula is shown below
The injection of mitochondria had no effect on survival during the first day (100% of the animals survived). However only 60% of animals survived the next two days. This survival rate persisted for at least 16 days. […] In this experiment a strong reduction in weight was clearly observed in the first 3 days after injection of mitochondria. Then the surviving animals began to recover—mortality disappeared, and body weight began to increase. In a control experiment, C12 TPP was used instead of SkQ1. In the case of C12 TPP, 20% of mice died in the first half day after the injection of mitochondria, and in two days the mortality had grown to 80%.
(§2) In the next series of experiments, it was investigated whether animals can be rescued by SkQ1 treatment administered simultaneously with the challenge or even after the challenge.

mice [2] = experiment: Cold shock (90 minutes at −20° C.), survival; type: in vivo
Experimental: as §1
In the next experiment, critical condition was caused by a completely different stress, namely by cold shock resulting from incubating mice for 1.5 hours at −20° C. It can be seen in FIG. 8 that cold shock led to dramatic increase of mortality between days 5 and 8, resulting in a survival rate of 40%.
as §2

mice [3] = experiment: Lethal shock by toxic dose of C12 TPP, survival; type: in vivo
Experimental: as §1
In the next experiment a critical condition in mice was induced by i/v injection of a toxic dose of C12 TPP (34 μmole/kg). Considering the membrane-penetrating and membrane-disruptive properties of C12 TPP, it can be expected that the lethal effect of i/v injection of C12 TPP occurs due to disruption of cells in the vascular system, including vascular endothelial cells.
This set of experiments was continued using the lethal shock was caused by toxic concentrations of C12 TPP. Two dosages of C12 TPP were used: 34 μmol/kg C12 TPP (FIG. 12) or 42 μmol/kg C12 TPP (FIG. 13). In the data shown in FIG. 12, SkQ1 (1.5 μmol/kg dosage) was administered to each of the mice both at 4.5 hours before C12 TPP and 0.5 hours after C12 TPP administration. Without SkQ1, about 80% of mice died within 32 hours after the injection of C12 TPP; with SkQ1 the death rate was reduced to 40%. In the experiment described in FIG. 13, the amount of C12 TPP was increased to 42 μmol/kg. […] In the experimental group, SkQ1 was administered once within 1 hour after C12 TPP treatment. In the SkQ1 treatment group ⅓ of the animals survived (FIG. 13).

[4] = SkQ1 bioavailability study, LCMS/MS blood concentration after i/v, i/p, s/c injection; type: in vivo; conditions: Wistar rats, 2 mg\kg
Experimental: The bioavailability of SkQ1 was determined after using different methods of administration. SPF category Wistar rats were used. SkQ1 concentration in blood samples was measured using an LCMS/MS method SkQ1 was administered at 2 mg\kg, and blood samples were taken at the indicated time points. Administration was by intravenous injection (FIG. 1A), intraperitoneal injection (FIG. 1B), or subcutaneous injection (FIG. 1C). Total SkQ1 dose was calculated as area under the curve (AUC) as shown at left of FIG. 1D. SkQ1 bioavailability was normalized to that of i/v administration and is shown at the right side of FIG. 1D.

CD-1 mice [5] = experiment: Acute toxicity, subcutaneous administration; type: in vivo; conditions: for LD50: subcutaneous
Description: The acute toxicity of SkQ1 solution administered by subcutaneous administration was studied in SPF male and female CD-1 mice.

[6] = system: human vascular endothelial cells; experiment: VE-cadherin study of endothelial cell-to-cell contacts after SIRS/sepsis patient serum (western blot, fluorescence microscopy); type: cell-based
Experimental: The mitochondrially targeted antioxidants disclosed herein can prevent deconstruction of cell-to-cell contacts between human vascular endothelial cells in culture when these cells are treated with blood serum samples from patients with SIRS or sepsis. Results of a VE-cadherin western blot are presented on FIG. 3, wherein a cell culture of human endothelial cells is pretreated with different dosages of SkQ1, then exposed to serum from patients diagnosed with sepsis. […] In FIG. 4, blood samples are taken from patients with diagnosed SIRS, with the patients age 18-75 years. A cell culture of human endothelial cells is pretreated with different dosages of SkQ1, then treated with 5-10% serum from the SIRS blood samples. At the top of FIG. 4, the VE-cadherin (fluorescence microscopy) c resembles the VE-cadherin at the bottom of FIG. 4 (SIRS serum+200 nM SkQ1). Actin and nucleus visualizations in FIG. 4 correspond with VE-cadherin observations.
Blood samples were taken from patients ages 18-75 years with diagnosed SIRS. Cell cultures of human endothelial cells were pretreated with different amounts of SkQ1, after which the cultures were treated with 5-10% serum from the SIRS blood samples. A one hour VE-cadherin study was performed by fluorescent microscopy followed by western-blot analysis. Results of the experiment are presented on FIG. 3 (western blot) and FIG. 4 (microscopy).

[7] = SkQ1 blood concentration with subcutaneous slow-release infusion pumps; type: in vivo; conditions: Wistar rats, slow-release infusion pumps introduced subcutaneously
Experimental: In the next experiment SkQ1 presence in the blood was prolonged by using slow-release infusion pumps introduced subcutaneously into Wistar rats. Blood samples from these animals were taken at timepoints indicated on FIG. 2, and SkQ1 concentration was measured as described above. […] This experiment also models administration of SkQ1 using intravenous infusion.

IL-6 = IL-6 concentration in blood after shock; type: in vivo, mice; conditions: intravenous injection of liver mitochondria, i/p SkQ1
CD-1 mice [8] = experiment: 28-day chronic toxicity with 14-day recovery, subcutaneous; type: in vivo
Experimental: SkQ1 solution 28-day chronic toxicity with 14-day recovery was studied in SPF male and female CD-1 mice at SkQ1 dosage of 0.6, 2.5, and 10 mg/kg administered subcutaneously, once daily. At 2.5 mg SkQ1/kg no adverse effects were identified (NOAEL) either at the end of the dosing or at the end of recovery. […] Peritonitis stemmed from the local ulcerative action of the formulation, while the adverse reactions of systems/organs were apparently the consequences of peritonitis.

[9] = system: H5N1 influenza virus (strain chicken/Kurgan/5/2005); type: in vivo, balb\c mice
TNFα = TNFα concentration in blood after shock; type: in vivo, mice; conditions: intravenous injection of liver mitochondria, i/p SkQ1
[10] = SkQ1 injected one minute after shock stimulus
[11] = H5N1-infected mice, i/p SkQ1 from day 2

For `CCCCCCCCCCCC[P+](c1ccccc1)(c1ccccc1)c1ccccc1` [C12 TPP, reference compound], the “Mortality after mitochondria injection” value (mice [1]; first half day after injection) was 20%, the “Mortality after mitochondria injection” value (mice [1]; in two days) was 80% and the “Mortality after cold shock” value (mice [2]; premedication and treatment, by the sixth day) was 100%. The “Mice died after C12 TPP” value (mice [3]; 34 μmol/kg C12 TPP without SkQ1, within 32 hours) was “about 80%”, the “Mortality caused by C12 TPP” value (mice [3]; 34 μmol/kg i/v, within 1 day) was 90% and the “Death after C12 TPP” value (mice [3]; 42 μmol/kg C12 TPP, control group, within 1.5 hours) was “all 12 animals died”.
For SkQ1, the “Mortality from injection of mitochondria” value (mice [1]; [10]) was “significantly reduced”, the “Survival after mitochondria injection” value (mice [1]; treatment five days before and five days after mitochondria injection) was 90% and the “SkQ1 bioavailability for intraperitoneal administration, of the bioavailability after intravenous administration” value ([4]; i/p, AUC normalized to i/v) was 35%. For the same compound, the “Persistence of SkQ1 in blood after injection” value ([4]; i/v, i/p or s/c injection) was “rapidly disappears from the blood”, the “SkQ1 bioavailability for subcutaneous administration, of the bioavailability after intravenous administration” value ([4]; subcutaneous, AUC normalized to i/v) was 44% and the “Findings in mice surviving toxic doses” value (CD-1 mice [5]; 14 days after administration of toxic doses) was “signs of hepato- and nephrotoxicity”. For the same compound, the “Cause of lethal effect of high doses” value (CD-1 mice [5]; first hours after subcutaneous administration) was “respiratory arrest”, the LD50 (CD-1 mice [5]; female CD-1 mice) was 26.8 (23-31) mg SkQ1/kg and the LD50 (CD-1 mice [5]; male CD-1 mice) was 31 (20.5-37.2) mg SkQ1/kg. The “VE-cadherin western blot intensity versus control” value ([6]; 200 nM SkQ1 and sepsis patient serum) was “about equal intensity to the control”, the “VE-cadherin fluorescence microscopy versus control” value ([6]; SIRS serum + 200 nM SkQ1) was “resembles” and the “Deconstruction of cell-to-cell contacts between endothelial cells” value ([6]; cells treated with serum from patients with SIRS or sepsis, SkQ1 pretreatment) was “prevented”. For the same compound, the “SkQ1 concentration in the blood with slow release” value [7] was “can be stabilized”, the “Increase of blood concentration of IL-6” value (IL-6) was “almost completely suppressed” and the “Mortality from cold shock” value (mice [2]; [10]) was “significantly reduced”. For the same compound, the “Death of animals after cold shock” value (mice [2]; premedication and after-shock treatment) was “completely prevented”, the “Effect on mortality caused by C12 TPP” value (mice [3]; 34 μmol/kg C12 TPP, SkQ1 pretreatment) was “prevented” and the “Death rate after C12 TPP with SkQ1” value (mice [3]; 34 μmol/kg C12 TPP, SkQ1 1.5 μmol/kg 4.5 hours before and 0.5 hours after) was 40%. For the same compound, the “Fraction of animals survived” value (mice [3]; 42 μmol/kg C12 TPP, SkQ1 once within 1 hour after C12 TPP) was “⅓”, the “Animals died (due to peritonitis)” value (CD-1 mice [8]; 10 mg/kg subcutaneous once daily, 28 days) was “≈ 15%” and the “NOAEL (no adverse effects identified)” value (CD-1 mice [8]; 28 days subcutaneous once daily, 14-day recovery) was 2.5 mg SkQ1/kg. The “Death caused by influenza virus infection” value [9, 11] was “delayed”, the “Development of bad health condition” value [9, 11] was “delayed” and the “Protection against critical condition” value ([9]; intraperitoneal SkQ1 1000 nmoles/kg and 3000 nmoles/kg) was “protects against the critical condition”. The “Increase of blood concentration of TNFα” value (TNFα) was “almost completely suppressed”.
